Experimental data reported in ChEMBL document CHEMBL3792337, “Cardiac Glycosides from the Seeds of Thevetia peruviana” (J Nat Prod, 2016).

What was measured:
SW1990 = assay: Cytotoxicity against human SW1990 cells after 48 hrs by MTT assay; assay type: functional, cell-based; settings: SW1990, 48 h
[1] = Cytotoxicity against human P15 cells after 48 hrs by MTT assay; assay type: functional, cell-based; settings: P15, 48 h
[2] = Cytotoxicity against human MGC803 cells after 48 hrs by MTT assay; assay type: functional, cell-based; settings: MGC-803, 48 h
[3] = Cytotoxicity against human LO2 cells after 48 hrs by MTT assay; assay type: cell-based; settings: L02, 48 h

Work on CO[C@H]1[C@H](OC(C)=O)[C@H](O[C@H]2CC[C@@]3(C)[C@H](CC[C@@H]4[C@@H]3CC[C@]3(C)[C@@H](C5=CC(=O)OC5)CC[C@]43O)C2)O[C@@H](C)[C@@H]1O[C@H]1O[C@@H](CO[C@@H]2O[C@H](CO)[C@@H](O)[C@H](O)[C@H]2O)[C@H](O)[C@@H](O)[C@@H]1O yielded an IC50 (SW1990) of 5.82 µM, an IC50 [1] of 4.75 µM and an IC50 [2] of 7.04 µM. The IC50 [3] was > 10 µM.
CO[C@@H]1[C@@H](O)[C@@H](O[C@@H]2CC[C@]3(C=O)[C@@H](CC[C@H]4[C@H]3CC[C@@]3(C)[C@H](C5=CC(=O)OC5)CC[C@@]43O)C2)O[C@H](C)[C@H]1O[C@@H]1O[C@H](CO)[C@@H](O)[C@H](O)[C@H]1O gave an IC50 (SW1990) of 0.64 µM, an IC50 [1] of 1.46 µM and an IC50 [2] of 5.32 µM. The IC50 [3] was > 10 µM.
In the case of CO[C@@H]1[C@@H](O)[C@@H](O[C@@H]2CC[C@]3(CO)[C@@H](CC[C@H]4[C@H]3CC[C@@]3(C)[C@H](C5=CC(=O)OC5)CC[C@@]43O)C2)O[C@H](C)[C@H]1O[C@@H]1O[C@H](CO[C@H]2O[C@@H](CO)[C@H](O)[C@@H](O)[C@@H]2O)[C@@H](O)[C@H](O)[C@H]1O, the IC50 (SW1990) is reported as 7.7 µM, the IC50 [1] is reported as 10 µM and the IC50 [2] is reported as 9.52 µM. The IC50 [3] was > 10 µM.
With CO[C@H]1[C@H](OC(C)=O)[C@H](O[C@H]2CC[C@@]3(C)[C@@H](CC[C@@H]4[C@@H]3CC[C@]3(C)[C@@H](C5=CC(=O)OC5)CC[C@]43O)C2)O[C@@H](C)[C@@H]1O[C@H]1O[C@@H](CO[C@@H]2O[C@H](CO)[C@@H](O)[C@H](O)[C@H]2O)[C@H](O)[C@@H](O)[C@@H]1O the IC50 (SW1990) was > 10 µM, the IC50 [1] was > 10 µM and the IC50 [2] was 10 µM. The IC50 [3] was > 10 µM.
For CO[C@H]1[C@H](OC(C)=O)[C@H](O[C@@H]2CC[C@]3(C=O)[C@@H](CC[C@H]4[C@H]3CC[C@@]3(C)[C@H](C5=CC(=O)OC5)CC[C@@]43O)C2)O[C@@H](C)[C@@H]1O[C@H]1O[C@@H](CO[C@@H]2O[C@H](CO)[C@@H](O)[C@H](O)[C@H]2O)[C@H](O)[C@@H](O)[C@@H]1O, the IC50 (SW1990) was > 10 µM, the IC50 [1] was > 10 µM and the IC50 [2] was 9.53 µM. The IC50 [3] was > 10 µM.
In the case of CO[C@H]1[C@H](O)[C@H](O[C@H]2CC[C@@]3(O)[C@H](CC[C@@H]4[C@@H]3CC[C@]3(C)[C@@H](C5=CC(=O)OC5)CC[C@]43O)C2)O[C@@H](C)[C@@H]1O, the IC50 (SW1990) is reported as 0.49 µM, the IC50 [1] is reported as 1.52 µM and the IC50 [2] is reported as 2.14 µM. The IC50 [3] was > 10 µM.
For CO[C@H]1[C@H](OC(C)=O)[C@H](O[C@H]2CC[C@@]3(C)[C@H](CC[C@@H]4[C@@H]3CC[C@]3(C)[C@@H](C5=CC(=O)OC5)CC[C@]43O)C2)O[C@@H](C)[C@@H]1O[C@H]1O[C@@H](CO)[C@H](O)[C@@H](O)[C@@H]1O, the IC50 (SW1990) was 1.84 µM, the IC50 [1] was 2.84 µM and the IC50 [2] was 3.21 µM. For the same compound, the IC50 [3] was > 10 µM.
For CO[C@H]1[C@@H](O)[C@H](O[C@H]2CC[C@@]3(C)[C@H](CC[C@@H]4[C@@H]3CC[C@]3(C)[C@@H](C5=CC(=O)OC5)CC[C@]43O)C2)O[C@@H](C)[C@@H]1O[C@H]1O[C@@H](CO)[C@H](O)[C@@H](O)[C@@H]1O, the IC50 (SW1990) was 1.69 µM, the IC50 [1] was 1.5 µM and the IC50 [2] was > 10 µM. The IC50 [3] was > 10 µM.
In the case of CO[C@H]1[C@H](O)[C@H](O[C@H]2CC[C@@]3(C)[C@H](CC[C@@H]4[C@@H]3CC[C@]3(C)[C@@H](C5=CC(=O)OC5)CC[C@]43O)C2)O[C@@H](C)[C@@H]1O[C@H]1O[C@@H](CO[C@@H]2O[C@H](CO)[C@@H](O)[C@H](O)[C@H]2O)[C@H](O)[C@@H](O)[C@@H]1O, the IC50 (SW1990) is reported as 4.56 µM, the IC50 [1] is reported as 3.97 µM and the IC50 [2] is reported as > 10 µM. The IC50 [3] was > 10 µM.
With CO[C@H]1[C@H](O)[C@H](O[C@H]2CC[C@@]3(OO)[C@H](CC[C@@H]4[C@@H]3CC[C@]3(C)[C@@H](C5=CC(=O)OC5)CC[C@]43O)C2)O[C@@H](C)[C@@H]1O[C@@H]1O[C@H](CO[C@@H]2O[C@H](CO)[C@@H](O)[C@H](O)[C@H]2O)[C@@H](O)[C@H](O)[C@H]1O the IC50 (SW1990) was 3.62 µM, the IC50 [1] was > 10 µM and the IC50 [2] was > 10 µM. For the same compound, the IC50 [3] was > 10 µM.
For CO[C@@H]1[C@@H](O)[C@@H](O[C@@H]2CC[C@]3(OO)[C@@H](CC[C@H]4[C@H]3CC[C@@]3(C)[C@H](C5=CC(=O)OC5)CC[C@@]43O)C2)O[C@H](C)[C@H]1O[C@@H]1O[C@H](CO)[C@@H](O)[C@H](O)[C@H]1O, the IC50 (SW1990) was > 10 µM, the IC50 [1] was 7.29 µM and the IC50 [2] was > 10 µM. For the same compound, the IC50 [3] was > 10 µM.
For CO[C@H]1[C@H](O)[C@H](O[C@H]2CC[C@@]3(O)[C@H](CC[C@@H]4[C@@H]3CC[C@]3(C)[C@@H](C5=CC(=O)OC5)CC[C@]43O)C2)O[C@@H](C)[C@@H]1O[C@H]1O[C@@H](CO)[C@H](O)[C@@H](O)[C@@H]1O, the IC50 (SW1990) was > 10 µM, the IC50 [1] was > 10 µM and the IC50 [2] was > 10 µM. For the same compound, the IC50 [3] was > 10 µM.
CO[C@H]1[C@H](O)[C@H](O[C@H]2CC[C@@]3(C)[C@H](CC[C@@H]4[C@@H]3CC[C@]3(C)[C@@H](C5=CC(=O)OC5)CC[C@]43O)C2)O[C@@H](C)[C@@H]1O[C@H]1O[C@@H](CO)[C@H](O)[C@@H](O)[C@@H]1O gave an IC50 (SW1990) of 0.62 µM, an IC50 [1] of 0.4 µM and an IC50 [2] of 0.42 µM. The IC50 [3] was > 10 µM.
Compound O=c1[nH]cc(F)c(=O)[nH]1 [FLUOROURACIL] has an IC50 (SW1990) of 126 µM, an IC50 [1] of 89.2 µM and an IC50 [2] of 68.3 µM. The IC50 [3] was > 10 µM.
With CO[C@H]1[C@H](O)[C@H](O[C@H]2CC[C@H]3[C@H](CC[C@@H]4[C@@H]3CC[C@]3(C)[C@@H](C5=CC(=O)OC5)CC[C@]43O)C2)O[C@@H](C)[C@@H]1O[C@@H]1O[C@H](CO[C@@H]2O[C@H](CO)[C@@H](O)[C@H](O)[C@H]2O)[C@@H](O)[C@H](O)[C@H]1O the IC50 (SW1990) was 3.13 µM, the IC50 [1] was > 10 µM and the IC50 [2] was 8.18 µM. For the same compound, the IC50 [3] was > 10 µM.
For CO[C@H]1[C@H](O)[C@H](O[C@H]2CC[C@@]3(O)[C@H](CC[C@@H]4[C@@H]3CC[C@]3(C)[C@@H](C5=CC(=O)OC5)CC[C@]43O)C2)O[C@@H](C)[C@@H]1O[C@@H]1O[C@H](CO[C@@H]2O[C@H](CO)[C@@H](O)[C@H](O)[C@H]2O)[C@@H](O)[C@H](O)[C@H]1O, the IC50 (SW1990) was > 10 µM, the IC50 [1] was > 10 µM and the IC50 [2] was > 10 µM. The IC50 [3] was > 10 µM.
With CO[C@H]1[C@@H](O)[C@H](O[C@H]2CC[C@@]3(C)[C@H](CC[C@@H]4[C@@H]3CC[C@]3(C)[C@@H](C5=CC(=O)OC5)CC[C@]43O)C2)O[C@@H](C)[C@@H]1O[C@H]1O[C@@H](CO[C@@H]2O[C@H](CO)[C@@H](O)[C@H](O)[C@H]2O)[C@H](O)[C@@H](O)[C@@H]1O the IC50 (SW1990) was 7.28 µM, the IC50 [1] was 6.02 µM and the IC50 [2] was 1.93 µM. For the same compound, the IC50 [3] was > 10 µM.
In the case of CO[C@@H]1[C@H](O)[C@@H](O[C@@H]2CC[C@]3(CO)[C@@H](CC[C@H]4[C@H]3CC[C@@]3(C)[C@H](C5=CC(=O)OC5)CC[C@@]43O)C2)O[C@H](C)[C@H]1O[C@@H]1O[C@H](CO)[C@@H](O)[C@H](O)[C@H]1O, the IC50 (SW1990) is reported as 2.14 µM, the IC50 [1] is reported as 4.91 µM and the IC50 [2] is reported as 5.75 µM. For the same compound, the IC50 [3] was > 10 µM.
Compound CO[C@H]1[C@H](OC(C)=O)[C@H](O[C@@H]2CC[C@]3(C=O)[C@@H](CC[C@H]4[C@H]3CC[C@@]3(C)[C@H](C5=CC(=O)OC5)CC[C@@]43O)C2)O[C@@H](C)[C@@H]1O[C@H]1O[C@@H](CO)[C@H](O)[C@@H](O)[C@@H]1O has an IC50 (SW1990) of 0.97 µM, an IC50 [1] of 0.59 µM and an IC50 [2] of 1.23 µM. The IC50 [3] was > 10 µM.
In the case of CO[C@H]1[C@H](O)[C@H](O[C@H]2CC[C@H]3[C@H](CC[C@@H]4[C@@H]3CC[C@]3(C)[C@@H](C5=CC(=O)OC5)CC[C@]43O)C2)O[C@@H](C)[C@@H]1O[C@H]1O[C@@H](CO)[C@H](O)[C@@H](O)[C@@H]1O, the IC50 (SW1990) is reported as 8.1 µM, the IC50 [1] is reported as 3.35 µM and the IC50 [2] is reported as > 10 µM. For the same compound, the IC50 [3] was > 10 µM.
With CO[C@H]1[C@H](O)[C@H](O[C@@H]2CC[C@]3(C(=O)O)[C@@H](CC[C@H]4[C@H]3CC[C@@]3(C)[C@H](C5=CC(=O)OC5)CC[C@@]43O)C2)O[C@@H](C)[C@@H]1O[C@H]1O[C@@H](CO[C@@H]2O[C@H](CO)[C@@H](O)[C@H](O)[C@H]2O)[C@H](O)[C@@H](O)[C@@H]1O the IC50 (SW1990) was > 10 µM, the IC50 [1] was > 10 µM and the IC50 [2] was > 10 µM. The IC50 [3] was > 10 µM.
In the case of CO[C@H]1[C@H](O)[C@H](O[C@H]2CC[C@@]3(C=O)[C@H](CC[C@@H]4[C@@H]3CC[C@]3(C)[C@@H](C5=CC(=O)OC5)CC[C@]43O)C2)O[C@@H](C)[C@@H]1O [PERUVOSIDE], the IC50 (SW1990) is reported as 0.02 µM, the IC50 [1] is reported as 0.03 µM and the IC50 [2] is reported as 0.02 µM. The IC50 [3] was > 10 µM.
For CO[C@@H]1[C@@H](O)[C@@H](O[C@H]2CC[C@@]3(C(=O)O)[C@H](CC[C@@H]4[C@@H]3CC[C@]3(C)[C@@H](C5=CC(=O)OC5)CC[C@]43O)C2)O[C@H](C)[C@H]1O[C@@H]1O[C@H](CO)[C@@H](O)[C@H](O)[C@H]1O, the IC50 (SW1990) was > 10 µM, the IC50 [1] was > 10 µM and the IC50 [2] was > 10 µM. The IC50 [3] was > 10 µM.
CO[C@H]1[C@H](O)[C@H](O[C@H]2CC[C@@]3(C)[C@@H](CC[C@@H]4[C@@H]3CC[C@]3(C)[C@@H](C5=CC(=O)OC5)CC[C@]43O)C2)O[C@@H](C)[C@@H]1O[C@H]1O[C@@H](CO)[C@H](O)[C@@H](O)[C@@H]1O gave an IC50 (SW1990) of 4.54 µM, an IC50 [1] of 2.68 µM and an IC50 [2] of 3.42 µM. The IC50 [3] was > 10 µM.
For CO[C@H]1[C@@H](O)[C@H](O[C@H]2CC[C@@]3(C)[C@@H](CC[C@@H]4[C@@H]3CC[C@]3(C)[C@@H](C5=CC(=O)OC5)CC[C@]43O)C2)O[C@@H](C)[C@@H]1O[C@H]1O[C@@H](CO[C@@H]2O[C@H](CO)[C@@H](O)[C@H](O)[C@H]2O)[C@H](O)[C@@H](O)[C@@H]1O, the IC50 (SW1990) was > 10 µM, the IC50 [1] was 10 µM and the IC50 [2] was 6.56 µM. For the same compound, the IC50 [3] was > 10 µM.
